Measurements reported in article PMC8414802, “Hair Cell Generation in Cochlear Culture Models Mediated by Novel γ-Secretase Inhibitors” (Frontiers in Cell and Developmental Biology, 2021).
pIC50: −log10 of the molar value.

Key:
[1] = test system: Atoh1, Pou4f3, Myo7a expression in otic spheres; experiment: Otic sphere assay, hair cell gene expression; assay type: cell-based, mouse
Description: The generation of otic spheres followed previously described protocols ([Oshima et al., 2009]) with modifications during differentiation phase to test GSIs. Briefly, OCs were dissociated and single cells were deposited in ultralow-cluster plates (Corning) and expanded in “full otic medium” consisting of DMEM/F12, supplemented with N2, B27 (Thermo Fisher), EGF (20 ng/ml; Chemicon), bFGF (10 ng/ml; Chemicon), IGF-1 (50 ng/ml; Chemicon), and heparan sulfate (50 ng/ml; Sigma-Aldrich). After culturing for 3–4 days at 37°C, spheres were collected, plated in cell culture-treated 96 well-plate and cultured in DMEM/F12, supplemented with N2, B27 with/without GSIs for 7 days after which they were lysed for RNA extraction.
Cells or tissue were lysed using RLT Lysis Buffer (Qiagen) and high purity RNA was prepared on the MagNA Pure instrument using MagNA Pure 96 Cellular RNA LV Kit (Roche). Reagents from Thermo Fisher were used for cDNA synthesis by reverse transcription using random hexamers. Resulting cDNA was RNAse H treated and amplified by TaqMan GEX mastermix and PCR primers and probes for human ATOH1 (Hs00944192_s1) and TBP (Hs00427620_m1), mouse Tbp (Mm00446971_m1), Atoh1 (Mm00476035_s1), Hes5 (Mm00439311_g1), Pouf4s (Mm04213795_s1), and Myo7a (Mm01274015_m1) on the Applied Biosystems QuantStudio 7 Flex Real-Time PCR System. Normalized to Tbp, relative gene expression fold-change was quantified and compared between experimental and control conditions by ΔΔCt calculation.
CPD3 and CPD8 were further compared for their potency to induce hair cell gene expression in otic sphere assays ([Oshima et al., 2009]). Cells were first expanded in presence of growth factors, and in a second step differentiated by growth factor removal and GSI treatment. […] This indicated a modest advantage of CPD3 in eliciting expression of the early hair cell marker Atoh1, but similar potency on expression of some later markers of HC differentiation, Pou4f3 and Myo7a (Figure 2A). From the results of two screening assays, CPD3 was selected for additional characterization studies based on its lower IC50 to induce Atoh1/ATOH1 expression in the otic spheres and LS174T cells, respectively.

[2] = test system: Pou4f3 positive hair cells in cochlear sensory epithelium from P2 rats; experiment: Hair cell counts in rat organ of Corti explants; assay type: cell-based; settings: rat OC explants, 4 days, apex/middle/base
Description: OC explants were isolated from postnatal day 2 (P2) Wistar rats, P0-P2 mice (Lgr5-GFP or Atoh1-nGFP mice). Dissection of the cochlea under a stereomicroscope (Nikon SMZ800, Japan) allowed OC separation from stria vascularis and modiolus, and the sensory epithelium was plated with hair cells facing up on Cell-Tak (Corning, United States)-coated transwell-clear inserts (6-well format, 0.4 μm pore, Corning, United States). Dissection medium was exchanged for 1.5 ml full otic medium supplemented with 10% FBS (Invitrogen) and 0.01% Ampicillin (Sigma), added under the insert membrane, maintaining the OC under a thin film of medium during culture at 37°C. 5-ethyl-2′-deoxyuridine (EdU, 5 μM, Life Technologies) was added directly in the medium when indicated. […]
Dividing cells were labeled with, 5-ethyl-2′-deoxyuridine (EdU) and detected with Click-it Plus kit (Life Technologies). […]
Image processing was performed with the open-source image processing software FIJI, version 2.0 ([Schindelin et al., 2012]). Hair cells were quantified by counting Pou4f3 or Myo7a positive cells of the organ of Corti at three random microscopic fields for each cochlear region (base, middle, and apex) covering in total at least 1,200 μm. The number of hair cells (IHCs and OHCs) is expressed as unit per 100 μm. […]

- pIC50 ([1]; Mus musculus, 168 h, 7 days differentiation with GSI, read-out: IC50 for Atoh1 upregulation): 8.17
Structure (SMILES): COc1ccc2c(c1)N1CCC(C)(C)C1=CC(=O)[C@H]2NC(=O)[C@H](C)NC(=O)CCC(F)(F)F [CPD3]
- Induction of Atoh1, Pou4f3 and Myo7a expression ([1]; dose-responsive, p < 0.05): significantly induced
- Region of OHC induction [2]: limited to the apical region
